Measurements from CN108947977A, “3r-吲哚甲基-6r-酰胺侧链氨基酸修饰的哌嗪-2,5-二酮，其合成，活性和应用” (Capital Medical University, priority 2017, dated 2018).

What was measured:
Lewis小鼠肺癌细胞(LLC) = assay: Anti-metastasis activity: Lewis lung carcinoma (LLC) implanted in C57BL/6 mice, lung metastasis nodules counted; type: in vivo, C57BL/6小鼠; conditions: oral, 0.5μmol/kg/天; for Inhibition of tumour lung metastasis (result in words): 12 days, LLC-bearing C57BL/6 mice; for Anti-metastasis activity compared with RGDS (20μmol/kg/天) and compound 8 (5μmol/kg/天): RGDS dose 40-fold higher, compound 8 dose 10-fold higher
S180 = assay: Anti-tumour growth activity in S180 tumour-bearing mice (tumour weight); type: in vivo, ICR小鼠; conditions: oral, 0.5μmol/kg/天; for Inhibition of tumour growth (result in words): 12 days, S180 mice; for Anti-tumour growth activity compared with compound 8 (5μmol/kg/天): compound 8 dose 10-fold higher
二甲苯引起的小鼠耳肿胀 = assay: Anti-inflammatory activity: xylene-induced mouse ear swelling; type: in vivo, ICR小鼠; conditions: oral, 0.5μmol/kg; for Inhibition of xylene-induced mouse ear swelling (result in words): xylene 30 min after dosing, ears taken 2 h later; for Anti-inflammatory activity compared with compound 8 (5μmol/kg): compound 8 dose 10-fold higher

SMILES: NC(=O)C[C@H](N)C(=O)NCCCCCC(=O)NCCCC[C@H]1NC(=O)[C@@H](Cc2c[nH]c3ccccc23)NC1=O [化合物6b, (3R,6R)-3-(Asn-氨基正己酰基氨基正丁基)-6-(吲哚-3-甲基)-哌嗪-2,5-二酮]
- Inhibition of tumour lung metastasis (result in words) (Lewis小鼠肺癌细胞(LLC)): 有效地抑制肿瘤肺转移
- Anti-metastasis activity compared with RGDS (20μmol/kg/天) and compound 8 (5μmol/kg/天) (Lewis小鼠肺癌细胞(LLC)): 没有显著性差异
- Inhibition of tumour growth (result in words) (S180): 有效地抑制肿瘤生长
- Anti-tumour growth activity compared with compound 8 (5μmol/kg/天) (S180): 没有显著性差异
- Inhibition of xylene-induced mouse ear swelling (result in words) (二甲苯引起的小鼠耳肿胀): 有效地抑制二甲苯引起的小鼠耳肿胀
- Anti-inflammatory activity compared with compound 8 (5μmol/kg) (二甲苯引起的小鼠耳肿胀): 没有显著性差异

SMILES: NC(=O)CC[C@H](N)C(=O)NCCCCCC(=O)NCCCC[C@H]1NC(=O)[C@@H](Cc2c[nH]c3ccccc23)NC1=O [化合物6a, (3R,6R)-3-(Gln-氨基正己酰基氨基正丁基)-6-(吲哚-3-甲基)-哌嗪-2,5-二酮]
- Inhibition of tumour lung metastasis (result in words) (Lewis小鼠肺癌细胞(LLC)): 有效地抑制肿瘤肺转移
- Anti-metastasis activity compared with RGDS (20μmol/kg/天) and compound 8 (5μmol/kg/天) (Lewis小鼠肺癌细胞(LLC)): 没有显著性差异
- Inhibition of tumour growth (result in words) (S180): 有效地抑制肿瘤生长
- Anti-tumour growth activity compared with compound 8 (5μmol/kg/天) (S180): 没有显著性差异
- Inhibition of xylene-induced mouse ear swelling (result in words) (二甲苯引起的小鼠耳肿胀): 有效地抑制二甲苯引起的小鼠耳肿胀
- Anti-inflammatory activity compared with compound 8 (5μmol/kg) (二甲苯引起的小鼠耳肿胀): 没有显著性差异
